Measurements reported in ChEMBL document CHEMBL1130625, “Synthesis and antibacterial activity of novel 7-(3-substituted-3 or 4-trifluoromethyl-1-pyrrolidinyl)-8-methoxyfluoroquinolones” (1998).
≈ marks a conversion by molar mass, not a printed value.

Key:
Staphylococcus aureus [1] = assay: Compound was tested for antibacterial activity against gram positive Staphylococcus aureus FDA 209P JC-1; assay type: functional; conditions: Staphylococcus aureus; read-out: MIC
Citrobacter freundii [2] = assay: Compound was tested for antibacterial activity against gram negative Citrobacter freundii No.7; assay type: functional; conditions: Citrobacter freundii; read-out: MIC
Pseudomonas aeruginosa [3] = assay: Compound was tested for antibacterial activity against gram negative Pseudomonas aeruginosa K-13; assay type: functional; conditions: Pseudomonas aeruginosa; read-out: MIC
Klebsiella oxytoca = assay: Compound was tested for antibacterial activity against gram negative Klebsiella oxytoca GN 10650; assay type: functional; conditions: Klebsiella oxytoca; read-out: MIC
Serratia marcescens = assay: Compound was tested for antibacterial activity against gram negative Serratia marcescens No.16-2; assay type: functional; conditions: Serratia marcescens; read-out: MIC
Citrobacter freundii [4] = assay: Compound was tested for antibacterial activity against gram negative Citrobacter freundii KP-29; assay type: functional; conditions: Citrobacter freundii; read-out: MIC
Pseudomonas aeruginosa [5] = assay: Compound was tested for antibacterial activity against gram negative Pseudomonas aeruginosa PAO1; assay type: functional; conditions: Pseudomonas aeruginosa; read-out: MIC
Escherichia coli [6] = assay: Compound was tested for antibacterial activity against gram negative Escherichia coli CSH2/RE45; assay type: functional; conditions: Escherichia coli; read-out: MIC
Staphylococcus aureus [7] = assay: Compound was tested for antibacterial activity against gram positive Staphylococcus aureus JS-1; assay type: functional
Pseudomonas aeruginosa [8] = assay: Compound was tested for antibacterial activity against gram negative Pseudomonas aeruginosa KP-254; assay type: functional; conditions: Pseudomonas aeruginosa; read-out: MIC
Escherichia coli [9] = assay: Compound was tested for antibacterial activity against gram negative Escherichia coli NIHJ JC-2; assay type: functional
Pseudomonas aeruginosa [10] = assay: Compound was tested for antibacterial activity against gram negative Pseudomonas aeruginosa AK109; assay type: functional; conditions: Pseudomonas aeruginosa; read-out: MIC
Staphylococcus aureus [11] = assay: Compound was tested for antibacterial activity against gram positive Staphylococcus aureus smith; assay type: functional
Klebsiella pneumoniae [12] = assay: Compound was tested for antibacterial activity against gram negative Klebsiella pneumoniae KC-1; assay type: functional; conditions: Klebsiella pneumoniae; read-out: MIC
Staphylococcus aureus [13] = assay: Compound was tested for antibacterial activity against gram positive Staphylococcus aureus KP-90-3; assay type: functional; conditions: Staphylococcus aureus; read-out: MIC
Enterococcus faecalis = assay: Compound was tested for antibacterial activity against gram positive Enterococcus faecalis 1373; assay type: functional; conditions: Enterococcus faecalis; read-out: MIC
Proteus vulgaris [14] = assay: Compound was tested for antibacterial activity against gram negative Proteus vulgaris No.33; assay type: functional; conditions: Proteus vulgaris; read-out: MIC
[15] = system: Acinetobacter calcoaceticus; assay: Compound was tested for antibacterial activity against gram negative Acinetobacter calcoaceticus No.4; assay type: functional; conditions: Acinetobacter calcoaceticus; read-out: MIC
Escherichia coli [16] = assay: Compound was tested for antibacterial activity against gram negative Escherichia coli ML4707; assay type: functional; conditions: Escherichia coli; read-out: MIC
Klebsiella pneumoniae [17] = assay: Compound was tested for antibacterial activity against gram negative Klebsiella pneumoniae No.42; assay type: functional; conditions: Klebsiella pneumoniae; read-out: MIC
Enterobacter cloacae = assay: Compound was tested for antibacterial activity against gram negative Enterobacter cloacae Nek39; assay type: functional; conditions: Enterobacter cloacae; read-out: MIC
Burkholderia cepacia = assay: Compound was tested for antibacterial activity against gram negative Burkholderia cepacia 23; assay type: functional; conditions: Burkholderia cepacia; read-out: MIC
Proteus mirabilis = assay: Compound was tested for antibacterial activity against gram negative Proteus mirabilis JY-10; assay type: functional; conditions: Proteus mirabilis; read-out: MIC
Proteus vulgaris [18] = assay: Compound was tested for antibacterial activity against gram negative Proteus vulgaris KS-134; assay type: functional; conditions: Proteus vulgaris; read-out: MIC
Escherichia coli [19] = assay: Compound was tested for antibacterial activity against gram negative Escherichia coli CSH2/RK1; assay type: functional; conditions: Escherichia coli; read-out: MIC
Streptococcus pyogenes = assay: Compound was tested for antibacterial activity against gram positive Streptococcus pyogenes cook; conditions: Streptococcus pyogenes; read-out: MIC
[20] = Staphylococcus aureus, read-out: MIC
[21] = Escherichia coli, read-out: MIC

SMILES | MIC (Staphylococcus aureus [1]) [µg/mL] | MIC (Citrobacter freundii [2]) [µg/mL] | MIC (Pseudomonas aeruginosa [3]) [µg/mL] | MIC (Klebsiella oxytoca) [µg/mL] | MIC (Serratia marcescens) [µg/mL] | MIC (Citrobacter freundii [4]) [µg/mL] | MIC (Pseudomonas aeruginosa [5]) [µg/mL] | MIC (Escherichia coli [6]) [µg/mL] | MIC (Pseudomonas aeruginosa [8]) [µg/mL] | MIC (Pseudomonas aeruginosa [10]) [µg/mL] | MIC (Staphylococcus aureus [11]) [µg/mL] | MIC (Klebsiella pneumoniae [12]) [µg/mL] | MIC (Staphylococcus aureus [13]) [µg/mL] | MIC (Enterococcus faecalis) [µg/mL] | MIC (Proteus vulgaris [14]) [µg/mL] | MIC [15] [µg/mL] | MIC (Escherichia coli [16]) [µg/mL] | MIC (Klebsiella pneumoniae [17]) [µg/mL] | MIC (Enterobacter cloacae) [µg/mL] | MIC (Burkholderia cepacia) [µg/mL] | also measured
COc1c(N2C[C@@H](CO)[C@H](C(F)(F)F)C2)c(F)cc2c(=O)c(C(=O)O)cn(C3CC3)c12 | 0.025 (≈ 0.0563 µM) | 12.5 (≈ 28.1 µM) | 25 (≈ 56.3 µM) | 1.56 (≈ 3.51 µM) | 6.25 (≈ 14.1 µM) | > 100 | 3.13 (≈ 7.04 µM) | 6.25 (≈ 14.1 µM) | > 100 | 6.25 (≈ 14.1 µM) | ≤ 0.006 | 1.56 (≈ 3.51 µM) | 0.78 (≈ 1.76 µM) | 0.2 (≈ 0.45 µM) | 0.78 (≈ 1.76 µM) | 0.78 (≈ 1.76 µM) | 0.2 (≈ 0.45 µM) | 3.13 (≈ 7.04 µM) | 3.13 (≈ 7.04 µM) | 3.13 (≈ 7.04 µM) | MIC (Staphylococcus aureus [7]; [20]): 0.013 µg/mL (≈ 0.0293 µM); MIC (Escherichia coli [9]; [21]): 0.39 µg/mL (≈ 0.878 µM); MIC (Proteus mirabilis): 0.2 µg/mL (≈ 0.45 µM); MIC (Proteus vulgaris [18]): 100 µg/mL (≈ 225 µM); MIC (Escherichia coli [19]): 6.25 µg/mL (≈ 14.1 µM); MIC (Streptococcus pyogenes): 0.2 µg/mL (≈ 0.45 µM)
COc1c(N2C[C@@H](CN)[C@H](C(F)(F)F)C2)c(F)cc2c(=O)c(C(=O)O)cn(C3CC3)c12.Cl (racemic) | 0.025 | 0.78 | 12.5 | 0.1 | 0.39 | 25 | 1.56 | 0.78 | 100 | 1.56 | ≤ 0.006 | 0.05 | 0.39 | 0.05 | 0.1 | 0.1 | 0.05 | 0.2 | 0.39 | 1.56 | MIC (Staphylococcus aureus [7]): 0.013 µg/mL; MIC (Escherichia coli [9]): 0.1 µg/mL; MIC (Proteus mirabilis): 0.1 µg/mL; MIC (Proteus vulgaris [18]): 50 µg/mL; MIC (Escherichia coli [19]): 0.78 µg/mL; MIC (Streptococcus pyogenes): 0.025 µg/mL
COc1c(N2C[C@@H](C(F)(F)F)[C@@H](N)C2)c(F)cc2c(=O)c(C(=O)O)cn(C3CC3)c12.Cl | 0.05 | 3.13 | 50 | 0.39 | 3.13 | 100 | 3.13 | 3.13 | > 100 | 6.25 | 0.025 | 0.2 | 1.56 | 0.39 | 0.39 | 0.2 | 0.1 | 0.39 | 3.13 | 1.56 | MIC (Staphylococcus aureus [7]; [20]): 0.05 µg/mL; MIC (Escherichia coli [9]; [21]): 0.2 µg/mL; MIC (Proteus mirabilis): 0.2 µg/mL; MIC (Proteus vulgaris [18]): 100 µg/mL; MIC (Escherichia coli [19]): 3.13 µg/mL; MIC (Streptococcus pyogenes): 0.39 µg/mL
COc1c(N2CC[C@@](CO)(C(F)(F)F)C2)c(F)cc2c(=O)c(C(=O)O)cn(C3CC3)c12 | 0.1 (≈ 0.225 µM) | 25 (≈ 56.3 µM) | 50 (≈ 113 µM) | 3.13 (≈ 7.04 µM) | 12.5 (≈ 28.1 µM) | > 100 | 12.5 (≈ 28.1 µM) | 25 (≈ 56.3 µM) | > 100 | 12.5 (≈ 28.1 µM) | 0.025 (≈ 0.0563 µM) | 1.56 (≈ 3.51 µM) | 3.13 (≈ 7.04 µM) | 0.39 (≈ 0.878 µM) | 1.56 (≈ 3.51 µM) | 1.56 (≈ 3.51 µM) | 0.05 (≈ 0.113 µM) | 3.13 (≈ 7.04 µM) | 6.25 (≈ 14.1 µM) | 3.13 (≈ 7.04 µM) | MIC (Staphylococcus aureus [7]; [20]): 0.05 µg/mL (≈ 0.113 µM); MIC (Escherichia coli [9]; [21]): 1.56 µg/mL (≈ 3.51 µM); MIC (Proteus mirabilis): 0.39 µg/mL (≈ 0.878 µM); MIC (Proteus vulgaris [18]): 100 µg/mL (≈ 225 µM); MIC (Escherichia coli [19]): 25 µg/mL (≈ 56.3 µM); MIC (Streptococcus pyogenes): 0.39 µg/mL (≈ 0.878 µM)
COc1c(N2C[C@H](CN)[C@H](C(F)(F)F)C2)c(F)cc2c(=O)c(C(=O)O)cn(C3CC3)c12.Cl | 0.025 | 0.78 | 3.13 | 0.05 | 0.78 | 6.25 | 0.78 | 0.2 | 50 | 0.78 | ≤ 0.006 | 0.05 | 0.2 | 0.05 | 0.05 | 0.1 | 0.025 | 0.1 | 0.39 | 1.56 | MIC (Staphylococcus aureus [7]; [20]): ≤ 0.006 µg/mL; MIC (Escherichia coli [9]; [21]): 0.05 µg/mL; MIC (Proteus mirabilis): 0.025 µg/mL; MIC (Proteus vulgaris [18]): 25 µg/mL; MIC (Escherichia coli [19]): 0.2 µg/mL; MIC (Streptococcus pyogenes): ≤ 0.006 µg/mL
NC1CCN(c2nc3c(cc2F)c(=O)c(C(=O)O)cn3-c2ccc(F)cc2F)C1 (configuration not stated) [TOSUFLOXACIN] | 0.05 (≈ 0.124 µM) | 0.39 (≈ 0.965 µM) | 6.25 (≈ 15.5 µM) | 0.05 (≈ 0.124 µM) | 0.39 (≈ 0.965 µM) | > 12.5 | 0.39 (≈ 0.965 µM) | 0.39 (≈ 0.965 µM) | > 12.5 | 0.39 (≈ 0.965 µM) | 0.025 (≈ 0.0618 µM) | 0.025 (≈ 0.0618 µM) | 12.5 (≈ 30.9 µM) | 0.2 (≈ 0.495 µM) | 0.05 (≈ 0.124 µM) | 0.025 (≈ 0.0618 µM) | 0.013 (≈ 0.0322 µM) | 0.025 (≈ 0.0618 µM) | 0.2 (≈ 0.495 µM) | 0.78 (≈ 1.93 µM) | MIC (Staphylococcus aureus [7]; [20]): 0.05 µg/mL (≈ 0.124 µM); MIC (Escherichia coli [9]; [21]): 0.05 µg/mL (≈ 0.124 µM); MIC (Proteus mirabilis): 0.05 µg/mL (≈ 0.124 µM); MIC (Proteus vulgaris [18]): > 12.5 µg/mL; MIC (Escherichia coli [19]): 0.39 µg/mL (≈ 0.965 µM); MIC (Streptococcus pyogenes): 0.1 µg/mL (≈ 0.247 µM)
CC1COc2c(N3CCN(C)CC3)c(F)cc3c(=O)c(C(=O)O)cn1c23 (configuration not stated) [OFLOXACIN] | 0.39 (≈ 1.08 µM) | 0.39 (≈ 1.08 µM) | 12.5 (≈ 34.6 µM) | 0.1 (≈ 0.277 µM) | 0.78 (≈ 2.16 µM) | 50 (≈ 138 µM) | 1.56 (≈ 4.32 µM) | 0.78 (≈ 2.16 µM) | > 100 | 1.56 (≈ 4.32 µM) | 0.2 (≈ 0.553 µM) | 0.05 (≈ 0.138 µM) | 25 (≈ 69.2 µM) | 1.56 (≈ 4.32 µM) | 0.05 (≈ 0.138 µM) | 0.78 (≈ 2.16 µM) | 0.025 (≈ 0.0692 µM) | 0.2 (≈ 0.553 µM) | 0.39 (≈ 1.08 µM) | 3.13 (≈ 8.66 µM) | MIC (Staphylococcus aureus [7]; [20]): 0.39 µg/mL (≈ 1.08 µM); MIC (Escherichia coli [9]; [21]): 0.1 µg/mL (≈ 0.277 µM); MIC (Proteus mirabilis): 0.05 µg/mL (≈ 0.138 µM); MIC (Proteus vulgaris [18]): 50 µg/mL (≈ 138 µM); MIC (Escherichia coli [19]): 0.78 µg/mL (≈ 2.16 µM); MIC (Streptococcus pyogenes): 0.78 µg/mL (≈ 2.16 µM)
